Patent US20040077540A1, “Compositions and methods for modulating physiology of epithelial junctional adhesion molecules for enhanced mucosal delivery of therapeutic compounds” (Nastech Pharmaceutical Company Inc., priority 2002, published 2004)

System: EpiAirway™ Cell Membrane (mucosal epithelial cell layer)
Experiment: Transepithelial electrical resistance (TER) assay in EpiAirway Cell Membrane
Assay type: cell-based
Conditions: for Average TER Value: permeabilizing peptide 1.0 mM on EpiAirway Cell Membrane, each group of lines has its own CONTROL; for TER % of Control: permeabilizing peptide 1.0 mM, control normalized to 100, decrease = increased permeability
Protocol: The EpiAirway™ system was developed by MatTek Corp (Ashland, Mass.) as a model of the pseudostratified epithelium lining the respiratory tract. The epithelial cells are grown on porous membrane-bottomed cell culture inserts at an air-liquid interface, which results in differentiation of the cells to a highly polarized morphology. The apical surface is ciliated with a microvillous ultrastructure and the epithelium produces mucus (the presence of mucin has been confirmed by immunoblotting). The inserts have a diameter of 0.875 cm, providing a surface area of 0.6 cm^2. The cells are plated onto the inserts at the factory approximately three weeks before shipping. One “kit” consists of 24 units.
A. On arrival, the units are placed onto sterile supports in 6-well microplates. Each well receives 5 mL of proprietary culture medium. This DMEM-based medium is serum free but is supplemented with epidermal growth factor and other factors. […] The 5 mL volume is just sufficient to provide contact to the bottoms of the units on their stands, but the apical surface of the epithelium is allowed to remain in direct contact with air. Sterile tweezers are used in this step and in all subsequent steps involving transfer of units to liquid-containing wells to ensure that no air is trapped between the bottoms of the units and the medium.
B. The units in their plates are maintained at 37° C. in an incubator in an atmosphere of 5% CO2 in air for 24 hours. At the end of this time the medium is replaced with fresh medium and the units are returned to the incubator for another 24 hours.
A. A “kit” of 24 EpiAirway™ units can routinely be employed for evaluating five different formulations, each of which is applied to quadruplicate wells. Each well is employed for determination of permeation kinetics (4 time points), transepithelial electrical resistance (TER), mitochondrial reductase activity as measured by MTT reduction, and cytolysis as measured by release of LDH. An additional set of wells is employed as controls, which are sham treated during determination of permeation kinetics, but are otherwise handled identically to the test sample-containing units for determinations of transepithelial resistance and viability. The determinations on the controls are routinely also made on quadruplicate units, but occasionally we have employed triplicate units for the controls and have dedicated the remaining […] units in the kit to measurements of transepithelial resistance and viability on untreated units or we have frozen and thawed the units for determinations of total LDH levels to serve as a reference for 100% cytolysis.
A. Respiratory airway epithelial cells form tight junctions in vivo as well as in vitro, and thereby restrict the flow of solutes across the tissue. These junctions confer a transepithelial resistance of several hundred ohms×cm^2 in excised airway tissues. In the MatTek EpiAirway™ units, the transepithelial electrical resistance (TER) is reported by the manufacturer to be routinely around 1000 ohms×cm^2. […] The porous membrane-bottomed units without cells, conversely, provide only minimal transmembrane resistance (approximately 5-20 ohms×cm^2).
B. Accurate determinations of TER require that the electrodes of the ohmmeter be positioned over a significant surface area above and below the membrane, and that the distance of the electrodes from the membrane be reproducibly controlled. The method for TER determination recommended by MatTek and employed for all experiments herein employs an “EVOM”™ epithelial voltohmmeter and an “ENDOHM”™ tissue resistance measurement chamber from World Precision Instruments, Inc., Sarasota, Fla.
C. The chamber is initially filled with Dulbecco's phosphate buffered saline (PBS) for at least 20 minutes prior to TER determinations in order to equilibrate the electrodes.
D. Determinations of TER are made with 1.5 mL of PBS in the chamber and 350 μL of PBS in the membrane-bottomed unit being measured. […]

Row | Sequence | Average TER Value | TER % of Control
1 | AMYEGLWMSC [NP-38, Claudin-1 1st extracellular domain] | 291 ± 89 ohms-cm^2 | 63.7%
2 | FIGSNIITSQ [NP-37, Claudin-3: 1st extracellular domain] | 304 ± 41 ohms-cm^2 | 66.5%
3 | KVYDSVLALS [NP-43, Claudin-5: 1st extracellular domain] | 446 ± 85 ohms-cm^2 | 128.9%
4 | VSEEGGNSY [NP-12, JAM-1 extracellular domain] | 279 ± 27 ohms-cm^2 | 90.6%
5 | SVTVHSSEP [NP-1, JAM-1 extracellular domain] | 606 ± 130 ohms-cm^2 | 115.0%
6 | YVGASIVTAV [NP-19, Claudin-2: 1st extracellular domain] | 374 ± 57 ohms-cm^2 | 101.1%
7 | NRIVQEFYDP [NP-11, Claudin-1: 2nd extracellular domain] | 292 ± 20 ohms-cm^2 | 94.8%
8 | GYGYGYGYG [NP-4, Occludin: 1st extracellular domain] | 500 ± 42 ohms-cm^2 | 94.9%
9 | VSQSTGQIQC [NP-18, Claudin-1: 1st extracellular domain] | 439 ± 145 ohms-cm^2 | 118.6%
10 | YGYGGYTDP [NP-15, Occludin: 1st extracellular domain] | 383 ± 79 ohms-cm^2 | 103.5%
11 | VVQSTGQMQC [NP-36, Claudin-3: 1st extracellular domain] | 306 ± 58 ohms-cm^2 | 67.0%
12 | KVFDSLLNLS [NP-2, Claudin-1: 1st extracellular domain] | 709 ± 28 ohms-cm^2 | 134.5%
13 | VVQSTGHMQC [NP-16, Claudin-5: 1st extracellular domain] | 386 ± 44 ohms-cm^2 | 104.3%
14 | NIWEGLWMNC [NP-34, Claudin-3: 1st extracellular domain] | 297 ± 40 ohms-cm^2 | 65.0%
15 | KFDQGDTTR [NP-6, JAM-1 extracellular domain] | 793 ± 44 ohms-cm^2 | 150.5%
16 | GGSVGYPYG [NP-39, Occludin: 1st extracellular domain] | 442 ± 185 ohms-cm^2 | 127.7%
17 | GEVKVKLIV [NP-9, JAM-1 extracellular domain] | 342 ± 185 ohms-cm^2 | 92.4%
18 | TIWEGLWMNC [NP-40, Claudin-4: 1st extracellular domain] | 457 ± 146 ohms-cm^2 | 100.0%
19 | LVCYNNKIT [NP-13, JAM-1 extracellular domain] | 288 ± 51 ohms-cm^2 | 93.5%
20 | KVYDSLLALP [NP-7, Claudin-3: 1st extracellular domain] | 811 ± 87 ohms-cm^2 | 153.9%
21 | FIGSNIVTSQ [NP-35, Claudin-4: 1st extracellular domain] | 298 ± 56 ohms-cm^2 | 65.2%
22 | DRGYGTSLL [NP-3, Occludin: 1st extracellular domain] | 766 ± 94 ohms-cm^2 | 145.4%
23 | IVVREFYDPS [NP-14, Claudin-5: 2nd extracellular domain] | 286 ± 56 ohms-cm^2 | 92.9%
24 | TTWLGLWMSC [NP-45, Claudin-1: 1st extracellular domain] | 456 ± 162 ohms-cm^2 | 131.8%
25 | GSGFGSYGS [NP-5, Occludin: 1st extracellular domain] | 520 ± 134 ohms-cm^2 | 98.7%
26 | ATHSTGITQC [NP-44, Claudin-2: 1st extracellular domain] | 464 ± 61 ohms-cm^2 | 134.1%
27 | FLDHNIVTAQ [NP-20, Claudin-5: 1st extracellular domain] | 341 ± 31 ohms-cm^2 | 92.2%
